Patent publication US9670227B2, “Thienopyrimidine derivatives, a process for their preparation and pharmaceutical compositions containing them” (LES LABORATOIRES SERVIER, priority 2013, dated 2017)

Assays:
Mcl-1 protein = Mcl-1 protein (UniProtKB primary accession number: Q07820) (Homo sapiens, UniProt Q07820); experiment: Inhibition of Mcl-1 by fluorescence polarisation, Method 1; assay type: binding; details: fluorescence polarisation; Method 1, or Method 2; read-out: IC50 (M) Mcl-1 FP
Procedure, shortened: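 FP competition, 11-point compound titration in 5% final DMSO; protein and labelled probe at 5 nM and 1 nM final in HEPES/NaCl/Tween 20 buffer, pH 7.4.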

[1] = test system: H929 multiple myeloma tumour line; experiment: In vitro cytotoxicity, Microculture Tetrazolium Assay; assay type: cell-based; details: Homo sapiens, NCI-H929, 48 h, H929 cells, 48 hours exposure, MTT; read-out: IC50 (μM) MTT H929
Protocol: The cytotoxicity studies were carried out on the H929 multiple myeloma tumour line.
The cells are distributed onto microplates and exposed to the test compounds for 48 hours.

Sequence of Mcl-1 protein (Q07820 whole entry): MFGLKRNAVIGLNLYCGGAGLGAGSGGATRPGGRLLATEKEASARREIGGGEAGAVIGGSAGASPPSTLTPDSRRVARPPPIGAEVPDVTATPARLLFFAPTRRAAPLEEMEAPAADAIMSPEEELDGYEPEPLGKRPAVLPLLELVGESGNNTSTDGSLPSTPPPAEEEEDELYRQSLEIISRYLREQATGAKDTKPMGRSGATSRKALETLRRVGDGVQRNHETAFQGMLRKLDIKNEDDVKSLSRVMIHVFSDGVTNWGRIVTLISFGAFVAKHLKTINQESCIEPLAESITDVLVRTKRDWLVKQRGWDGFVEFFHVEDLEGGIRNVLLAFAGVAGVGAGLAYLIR

Compound	IC50 (Mcl-1 protein) [M]	IC50 [1] [µM]
COc1ccccc1CC(Oc1ncnc2sc(-c3ccc(F)cc3)c(-c3ccc(OCCN4CCN(C)CC4)c(Cl)c3C)c12)C(=O)OCOC(=O)C(C)(C)C [Example 643, {[(2R)-2-{[(5Sa)-5-{3-chloro-2-methyl-4-[2-(4-methylpiperazin-1-yl)ethoxy]phenyl}-6-(4-fluorophenyl)thieno[2,3-d]pyrimidin-4-yl]oxy}-3-(2-methoxyphenyl)propanoyl]oxy}methyl 2,2-dimethylpropanoate]	6.6e-07	0.303
COc1ccccc1CC(Oc1ncnc2sc(-c3ccc(F)cc3)c(-c3ccc(OCCN4CCN(C)CC4)c(Cl)c3C)c12)C(=O)OCc1oc(=O)oc1C [Example 644, (5-methyl-2-oxo-1,3-dioxol-4-yl)methyl (2R)-2-{[(5Sa)-5-{3-chloro-2-methyl-4-[2-(4-methylpiperazin-1-yl)ethoxy]phenyl}-6-(4-fluorophenyl)thieno[2,3-d]pyrimidin-4-yl]oxy}-3-(2-methoxyphenyl)propanoate]	3.7e-07	0.248
COc1ccccc1CC(Oc1ncnc2sc(-c3ccc(F)cc3)c(-c3ccc(OCCN4CCN(C)CC4)c(Br)c3C)c12)C(=O)O [Example 646, (2R)-2-{[(5Sa)-5-{3-bromo-2-methyl-4-[2-(4-methylpiperazin-1-yl)ethoxy]phenyl}-6-(4-fluorophenyl)thieno[2,3-d]pyrimidin-4-yl]oxy}-3-(2-methoxyphenyl)propanoic acid]	2.1e-08	0.298
COc1ccccc1CC(Oc1ncnc2sc(-c3ccc(F)cc3)c(-c3ccc(OCCN4CCN(C)CC4)c(Cl)c3Cl)c12)C(=O)O [Example 647, (2R)-2-{[(5Sa)-5-{2,3-dichloro-4-[2-(4-methylpiperazin-1-yl)ethoxy]phenyl}-6-(4-fluorophenyl)thieno[2,3-d]pyrimidin-4-yl]oxy}-3-(2-methoxyphenyl)propanoic acid]	2.3e-08	0.498
Cc1c(-c2c(-c3ccc(F)cc3)sc3ncnc(OC(Cc4ccccc4OCC4CCCO4)C(=O)O)c23)ccc(OCC2CCN(C)C2)c1Cl [Example 649, (2R)-2-{[(5Sa)-5-{3-chloro-2-methyl-4-[(1-methylpyrrolidin-3-yl)methoxy]phenyl}-6-(4-fluorophenyl)thieno[2,3-d]pyrimidin-4-yl]oxy}-3-{2-[(2R)-tetrahydrofuran-2-ylmethoxy]phenyl}propanoic acid]	2.3e-08	0.341

Further lines, with some results ahead:

IC50 (Mcl-1 protein) [M]	Compound	IC50 [1] [µM]
6.8e-09	COc1nccc(COc2ccccc2CC(Oc2ncnc3sc(-c4ccc(F)cc4)c(-c4cnc(OCCN5CCN(C)CC5)c(Cl)c4C)c23)C(=O)O)n1 [Example 651, (2R)-2-{[(5Ra)-5-{5-chloro-4-methyl-6-[2-(4-methylpiperazin-1-yl)ethoxy]pyridin-3-yl}-6-(4-fluorophenyl)thieno[2,3-d]pyrimidin-4-yl]oxy}-3-{2-[(2-methoxypyrimidin-4-yl)methoxy]phenyl}propanoic acid]	0.282
4.7e-09	CCn1nccc1COc1ccccc1CC(Oc1ncnc2sc(-c3ccc(F)cc3)c(-c3cnc(OCCN4CCN(C)CC4)c(Cl)c3C)c12)C(=O)O [Example 652, (2R)-2-{[(5Ra)-5-{5-chloro-4-methyl-6-[2-(4-methylpiperazin-1-yl)ethoxy]pyridin-3-yl}-6-(4-fluorophenyl)thieno[2,3-d]pyrimidin-4-yl]oxy}-3-{2-[(1-ethyl-1H-pyrazol-5-yl)methoxy]phenyl}propanoic acid]	0.059
6.1e-08	COCC#Cc1ccccc1CC(Oc1ncnc2sc(-c3ccc(F)cc3)c(-c3ccc(OCCN4CCN(C)CC4)c(Cl)c3C)c12)C(=O)O [Example 656, (2R)-2-{[(5Sa)-5-{3-chloro-2-methyl-4-[2-(4-methylpiperazin-1-yl)ethoxy]phenyl}-6-(4-fluorophenyl)thieno[2,3-d]pyrimidin-4-yl]oxy}-3-[2-(3-methoxyprop-1-yn-1-yl)phenyl]propanoic acid]	0.523
